US20110207726A1, “Inhibitors of Human Cathepsin L, Cathepsin B, and Cathepsin S” (The Trustees of the University of Pennsylvania, priority 2008, published 2011)
Like-named read-outs stand apart in the source and are kept apart here.

Legend:
[1] = molecular target: T1, human liver cathepsin L (Homo sapiens, UniProt P07711); assay: Cathepsin L assay, IC50 determination; type: biochemical
T1 construct: 8.7 ng/mL human liver cathepsin L (Calbiochem 219402); purchased Calbiochem 219402; host or cells: human liver
T1 sequence (P07711 114-288 limits assumed): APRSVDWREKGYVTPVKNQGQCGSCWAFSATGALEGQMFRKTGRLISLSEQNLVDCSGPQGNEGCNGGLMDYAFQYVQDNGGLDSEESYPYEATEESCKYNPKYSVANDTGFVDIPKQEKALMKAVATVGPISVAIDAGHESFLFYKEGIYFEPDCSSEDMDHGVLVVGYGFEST
T1 sequence (P07711 292-333 limits assumed): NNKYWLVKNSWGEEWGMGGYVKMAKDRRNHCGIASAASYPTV
Procedure, shortened: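 Enzyme (300 pM) pre-activated for 30 min in 20 mM sodium acetate, 1 mM EDTA, 5 mM cysteine, pH 5.5, then incubated 1 h at room temperature with 1 microM Z-Phe-Arg-AMC and compound. Fluorescent read-out on a microplate reader; IC50 in triplicate.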

[2] = molecular target: T2, Human spleen cathepsin S (Homo sapiens, UniProt P25774); assay: Cathepsin S assay, IC50 determination; type: biochemical
T2 construct: Human spleen cathepsin S (Calbiochem 219344, 40 ng/mL); purchased Calbiochem 219344; host or cells: human spleen
T2 sequence (P25774 115-331): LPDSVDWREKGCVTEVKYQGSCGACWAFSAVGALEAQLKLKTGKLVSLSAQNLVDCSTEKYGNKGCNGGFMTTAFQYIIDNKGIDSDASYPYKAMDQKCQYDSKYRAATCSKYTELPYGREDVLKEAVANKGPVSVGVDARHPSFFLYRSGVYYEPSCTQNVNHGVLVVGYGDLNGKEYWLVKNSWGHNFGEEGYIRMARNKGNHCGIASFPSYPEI
Procedure, shortened: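 Spleen cathepsin S (40 ng/mL) with 15 microM Z-Phe-Arg-AMC and liver cathepsin B (65 ng/mL) with 15 microM Z-Arg-Arg-AMC, in 20 mM sodium acetate, 1 mM EDTA, 5 mM cysteine, pH 5.5. AMC fluorescence release monitored; IC50 measured in triplicate.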

[3] = molecular target: T3, human cathepsin V (Homo sapiens, UniProt O60911); assay: Selectivity assay, cathepsin V; type: biochemical
T3 construct: purchased Calbiochem 219467
T3 sequence (O60911 114-334): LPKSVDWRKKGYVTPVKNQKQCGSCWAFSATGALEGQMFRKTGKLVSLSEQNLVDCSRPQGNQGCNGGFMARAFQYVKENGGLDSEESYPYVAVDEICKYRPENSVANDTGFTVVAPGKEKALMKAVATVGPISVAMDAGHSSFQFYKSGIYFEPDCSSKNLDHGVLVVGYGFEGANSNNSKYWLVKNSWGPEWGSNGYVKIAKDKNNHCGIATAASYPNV
Description: (§1) Compound No. 1 was assayed for inhibition against papain and cathepsins B, G, K, S, and V. Papain from Carica papaya (Calbiochem 5125, 11 ng/mL), human cathepsin K (Calbiochem 342001, 35 ng/mL), human spleen cathepsin S (Calbiochem 219344, 40 ng/mL), and human cathepsin V (Calbiochem 219467, 39 ng/ml) were assayed using Z-Phe-Arg-AMC substrate at 20 μM, 20 μM, 15 μM, and 1 μM, respectively. Human liver cathepsin B (Calbiochem 219362, 65 ng/mL) was assayed using 15 μM Z-Arg-Arg-AMC substrate (Bachem I-1135). Human neutrophil cathepsin G (Calbiochem 219373, 4.2 μg/mL) was assayed using 15 μM Suc-Ala-Ala-Pro-Phe-AMC substrate (Sigma S9761). All reactions were performed in 20 mM sodium acetate buffer containing 5 mM cysteine and 1 mM EDTA, pH 5.5. Reaction progress was monitored using the Envision microplate reader. IC50 values were measured in triplicate.

[4] = molecular target: T4, Papain from Carica papaya (Carica papaya, UniProt P00784); assay: Selectivity assay, papain; type: biochemical; settings: for IC50: Papain, no preincubation
T4 construct: Papain from Carica papaya (Calbiochem 5125, 11 ng/mL); purchased Calbiochem 5125; host or cells: Carica papaya
T4 sequence (P00784 134-345): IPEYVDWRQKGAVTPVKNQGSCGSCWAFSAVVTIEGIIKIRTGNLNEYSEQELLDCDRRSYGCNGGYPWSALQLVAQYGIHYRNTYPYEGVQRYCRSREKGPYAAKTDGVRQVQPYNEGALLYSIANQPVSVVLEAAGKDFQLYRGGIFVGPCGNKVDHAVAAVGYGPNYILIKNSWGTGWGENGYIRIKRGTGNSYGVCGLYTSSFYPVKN
Description: as §1

[5] = molecular target: T5, Human neutrophil cathepsin G (Homo sapiens, UniProt P08311); assay: Selectivity assay, cathepsin G; type: biochemical; settings: for IC50: Cathepsin G, no preincubation
T5 construct: Human neutrophil cathepsin G (Calbiochem 219373, 4.2 μg/mL); purchased Calbiochem 219373; host or cells: human neutrophils
T5 sequence (P08311 21-243 limits assumed): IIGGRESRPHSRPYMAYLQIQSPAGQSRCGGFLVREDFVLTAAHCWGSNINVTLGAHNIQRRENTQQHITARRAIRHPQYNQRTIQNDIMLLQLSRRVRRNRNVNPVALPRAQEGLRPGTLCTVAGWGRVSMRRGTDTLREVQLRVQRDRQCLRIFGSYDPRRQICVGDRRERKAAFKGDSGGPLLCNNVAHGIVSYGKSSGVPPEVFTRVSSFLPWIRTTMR
Description: as §1

[6] = system: Leishmania major promastigotes; assay: Leishmaniasis assay; type: cell-based; settings: read-out: IC50 against Leishmania major promastigotes
Description: Five thousand Leishmania major promastigotes were plated per well in a 384-well microtiter plate in a 20 μL volume of promastigote growth medium. Promastigotes were treated with a concentration range from 0 μM to 50 μM of Compound No. 1 for 44 hrs. Five pL Cell-Titer-Blue™ were added per well and incubated for 4 hrs. Relative fluorescence units (A560/A590) were captured on a SpectraMax M5 microtiter plate reader. DMSO concentrations were held constant at 0.5%.

[7] = 30 min, read-out: IC50 @ 30 min
[8] = 60 min, read-out: IC50 @ 60 min
[9] = 90 min, read-out: IC50 @ 90 min

## CCc1ccccc1NC(=O)CSC(=O)NNC(=O)[C@H](Cc1c[nH]c2ccccc12)NC(=O)OC(C)(C)C [Compound No. 1]
[1]; Cathepsin L, human liver, 10 min
  Selectivity Index @ 10 min: 1
[1]; Cathepsin L, human liver, no preincubation, 30 min, read-out: IC50 @ 30 min
  IC50: 75 ± 5 nM
[1]; Cathepsin L, human liver, no preincubation, 60 min, read-out: IC50 @ 60 min
  IC50: 56 ± 4 nM
[1]; Cathepsin L, human liver, no preincubation, 90 min, read-out: IC50 @ 90 min
  IC50: 50 ± 3 nM
[1]; Cathepsin L, 30 min
  Selectivity Index @ 30 min: 1
[1]; Cathepsin L, 60 min
  Selectivity Index @ 60 min: 1
[1]; Cathepsin L, 90 min
  Selectivity Index @ 90 min: 1
[1]; Cathepsin L, IC50 protease / IC50 cathepsin L, over 10-90 min
  Selectivity Index: 1
[1]; IC50 @ 10 min, Cathepsin L, human liver, no preincubation, 10 min
  IC50: 155 ± 12 nM
[1]; Table 1, read-out: IC50 Cat L
  IC50: 56 nM
[1]; Table 17, n = 3, C, S or O at the sulfur position, read-out: Cathepsin L inhibitory activity IC50
  IC50: 56 ± 4 nM
[1]; no preincubation of enzyme and inhibitor, read-out: IC50 against cathepsin L (no preincubation)
  IC50: 56 nM
[2]; Cathepsin S vs cathepsin L, 10 min
  Selectivity Index @ 10 min: 7
[2]; Cathepsin S vs cathepsin L, 30 min
  Selectivity Index @ 30 min: 10
[2]; Cathepsin S vs cathepsin L, 60 min
  Selectivity Index @ 60 min: 13
[2]; Cathepsin S vs cathepsin L, 90 min
  Selectivity Index @ 90 min: 14
[2]; Cathepsin S vs cathepsin L, over 10-90 min
  Selectivity Index: 7-14
[2]; Cathepsin S, no preincubation, 30 min, read-out: IC50 @ 30 min
  IC50: 745 ± 10 nM
[2]; Cathepsin S, no preincubation, 60 min, read-out: IC50 @ 60 min
  IC50: 724 ± 11 nM
[2]; Cathepsin S, no preincubation, 90 min, read-out: IC50 @ 90 min
  IC50: 721 ± 29 nM
[2]; IC50 @ 10 min, Cathepsin S, human spleen, no preincubation, 10 min
  IC50: 1110 ± 134 nM
[2]; Table 1, read-out: IC50 Cat S
  IC50: 960 nM
[3]
  IC50: 1010 ± 142 nM
[3]; Cathepsin V vs cathepsin L, 10 min
  Selectivity Index @ 10 min: 7
[3]; Cathepsin V vs cathepsin L, 30 min
  Selectivity Index @ 30 min: 9
[3]; Cathepsin V vs cathepsin L, 60 min
  Selectivity Index @ 60 min: 11
[3]; Cathepsin V vs cathepsin L, 90 min
  Selectivity Index @ 90 min: 11
[3]; Cathepsin V vs cathepsin L, over 10-90 min
  Selectivity Index: 7-11
[3]; Cathepsin V, no preincubation, 30 min, read-out: IC50 @ 30 min
  IC50: 688 ± 39 nM
[3]; Cathepsin V, no preincubation, 60 min, read-out: IC50 @ 60 min
  IC50: 618 ± 35 nM
[3]; Cathepsin V, no preincubation, 90 min, read-out: IC50 @ 90 min
  IC50: 576 ± 24 nM
[4]; IC50 @ 10 min, Carica papaya, 10 min
  IC50: 6760 ± 367 nM
[4]; Papain vs cathepsin L, 10 min
  Selectivity Index @ 10 min: 44
[4]; Papain vs cathepsin L, 30 min
  Selectivity Index @ 30 min: 40
[4]; Papain vs cathepsin L, 60 min
  Selectivity Index @ 60 min: 46
[4]; Papain vs cathepsin L, 90 min
  Selectivity Index @ 90 min: 31
[4]; Papain vs cathepsin L, over 10-90 min
  Selectivity Index: 31-46
[4]; [7]
  IC50: 2980 ± 282 nM
[4]; [8]
  IC50: 2600 ± 208 nM
[4]; [9]
  IC50: 1560 ± 314 nM
[5]
  inhibitory activity against cathepsin G (in words): no inhibitory activity
[5]; human neutrophil, 10 min
  IC50: > 50000 nM
[5]; [7]
  IC50: > 50000 nM
[5]; [8]
  IC50: > 50000 nM
[5]; [9]
  IC50: > 50000 nM
[6]
  IC50: 12500 ± 600 nM
